In patent US4990537A, “Anti influenza agent” (priority 1988, dated 1991):

Experiments:
[1] = test system: MDCK cells (dog kidney cells); details: for Cytotoxicity (printed in the inhibition rate column): 100.0 μg/ml, plaque assay, three days; for range of safety compared with amantadine: in words, versus amantadine
[2] = test system: human influenza virus (A/Fukuoka/80); experiment: animal or person; format: in vivo, human influenza virus; embryonated chicken eggs; details: for IC50: unidentified influenza virus, 48 h, read-out: Concentration for 50% inhibition against proliferation of virus; for activities for inhibiting proliferation of human influenza virus compared with amantadine: in words, versus amantadine
[3] = test system: human influenza virus A/WSN; experiment: Inhibitory activities against plaque formation of human influenza virus (plaque assay in MDCK cells); format: cell-based; details: for inhibitory activities against growth of human influenza virus compared with amantadine: in words, versus amantadine
in vitro = details: dog, mdck
[4] = unidentified influenza virus, WSN, MDCK, 72 h, read-out: Inhibition rate (%) of plaque formation

Structure (SMILES)	cytotoxicity [1]	Cytotoxicity (printed in the inhibition rate column) [1]	IC50 [2]	inhibition at 30 µg/mL [3, 4]	range of safety compared with amantadine [1]	activities for inhibiting proliferation of human influenza virus compared with amantadine [2]	MNTC at 72 h (in vitro)	inhibitory activities against growth of human influenza virus compared with amantadine [3]	inhibition at 1 µg/mL [3, 4]	inhibition at 2.5 µg/mL [3, 4]	inhibition at 5 µg/mL [3, 4]	inhibition at 10 µg/mL [3, 4]	inhibition at 25 µg/mL [3, 4]	inhibition at 50 µg/mL [3, 4]	inhibition at 20 µg/mL [3, 4]	inhibition at 40 µg/mL [3, 4]	inhibition at 100 µg/mL [3, 4]
NC12CC3CC(CC(C3)C1)C2 [Amantadine, amantadine, reference compound]	cytotoxicity slightly but distinctly	Cytotoxicity	> 100 µg/mL	60.1%													
CS(=O)(=O)O.CS(=O)(=O)O.N=C(N)Nc1ccc(C(=O)Oc2ccc3cc(C(=N)N)ccc3c2)cc1 [Compound A, 6-Amidino-2-naphthyl p-guanidinobenzoate dimethanesulfonate]		Cytotoxicity	0.125 µg/mL		wide range of safety as compared with amantadine	stronger activities for inhibiting proliferation of human influenza virus	≥ 50 µg/mL	even stronger inhibitory activities against growth of human influenza virus than amantadine	19.9%	27.2%	52.1%	100%	100%	100%			
CN(C)C(=O)COC(=O)Cc1ccc(OC(=O)c2ccc(NC(=N)N)cc2)cc1.CS(=O)(=O)O [Compound B, N,N-dimethylcarbamoylmethyl p-(p-guanidinobenzoyloxy)phenylacetate methanesulfonate]			1.25 µg/mL		wide range of safety as compared with amantadine	stronger activities for inhibiting proliferation of human influenza virus	≥ 1000 µg/mL	even stronger inhibitory activities against growth of human influenza virus than amantadine				29.5%		88%	51.5%	80.5%	100%
